Measurements published in PMC9793460, “Food effect risk assessment in preformulation stage using material sparing μFLUX methodology” (ADMET & DMPK, 2022).
Structures can show the parent of a compound that is named as a salt. Where two headings read alike, the source gives them in different places. Marks after values point to notes of the source that are not given here. One block for each compound: values may come before it.

Columns and labels:
[1] = cited from earlier work; for Type: ionization type; for pKa: experimental, higher pKa where two are given
[2] = μFLUX dissolution/flux test, FaSSIF or FeSSIF donor, acceptor sink buffer receiver; format: in vitro ADME; conditions: for Flux Fa (±SD; n=3) / Flux Fe (±SD; n=3): unformulated powder, initial flux excluding lag time, 37 °C; for Flux Ratios (Fed/Fasted): FeSSIF/FaSSIF; for Food effect indicated by flux ratio: prediction from FeSSIF/FaSSIF flux ratio
Experimental: Dissolution/flux tests were performed using a μFLUX apparatus (Pion Inc., Billerica, MA, USA) with 4 side-by-side donor-receiver chambers separated by a lipophilic barrier. Prior to the assay, the artificial GIT-mimicking membrane was prepared by impregnating a PVDF filter support material (polyvinylidenfluoride, 1.54 cm^2 open area, 0.45 μm pore size, 120 μm thickness, 70 % nominal porosity) with 25 μL of 20 % lecithin in dodecane lipid solution (GIT Lipid, Pion Inc., Billerica, MA, USA). The donor chambers were then filled with 20 ml of biorelevant media (FaSSIF or FeSSIF) while the receiver compartments were filled with 20 ml of acceptor sink buffer (ASB, Pion Inc., Billerica, MA, USA). The ASB is a HEPES (4-(2-hydroxyethyl)-1-piperazineethanesulfonic acid) based pH 7.4 buffer containing chemical scavengers (surfactants micelles) that allow to maintain sink conditions during the experiments. The composition of the membrane and the receiver solution are identical to the Double-Sink PAMPA model, a non-cell-based method predicting of passive transcellular intestinal absorption. The temperature in both chambers was maintained at 37 °C and the media were stirred at 100 rpm.
Model compounds were added at the start of the experiment in the donor chambers as unformulated powder at a solid load equivalent to the lowest marketed dose normalized to 250 mL stomach volume. In some cases, to counter for experimental limitation due to low signal detection or high turbidity, a higher or lower dose was selected.
Standards for each model compound were prepared by sequential addition of a stock solution of pure API pre-dissolved in organic solvents (either methanol or DMSO) to the corresponding medium. The area under the 2nd derivative spectra curves was used to calculate the concentrations. The wavelength range was selected individually for each compound in the way to avoid sensitivity issues. […] The drug concentration in the donor and receiver chambers was calculated from the UV absorbance of the samples using the corresponding standard curve. For samples with low permeability, an additional μFLUX donor-receiver pair containing described reagents except API was included in parallels and used as a corrective “blank” at the corresponding time point to ensure that the UV signal of API could be differentiated from the spectral noise of the biorelevant media. Concentration-time profiles were monitored over at least 180 min, in triplicate for each drug unless otherwise mentioned.
The flux (J) across the membrane representing the amount (m) of material crossing one unit area (A) of the membrane per unit time (t), was calculated from the concentration-time profiles in the receiver compartments:
A is the area of the membrane (1.54 cm^2), V is the volume of the receiver compartment (20 mL) and dc/dt (μg mL^-1 min^-1) is the slope of the concentration time profile of the drug in the receiver compartment.
The flux values were calculated by fitting the concentration-time profile in the receivers to a straight line to determine the slope and then normalizing the slope to the volume and surface area of the membrane following equation (1). Time intervals to calculate the flux were selected based on the apparent linearity of the concentration-time profile in the receivers, capturing the initial flux process and excluding the lag time unless otherwise is stated.

[3] = Solubility in biorelevant media (FaSSIF / FeSSIF); format: physicochemical; conditions: for Solubility ratio (Fed/Fasted): FeSSIF/FaSSIF, calculated from Table 2 solubilities; for Food effect indicated by solubility ratio: prediction from FeSSIF/FaSSIF solubility ratio
Experimental: Solubility measurements were performed by adding an excess amount of drug into FaSSIF or FeSSIF media in a glass vial. […] After equilibration, samples were centrifuged/filtered using NANOSEP with 0.2 μm Bio-inert centrifugal devices (PAL Corporation). The filtrate was immediately diluted accordingly into acetonitrile/water 50/50 and analyzed by HPLC.
Model drugs categorized as BCS I - IV classes were selected. The drugs included mono- and diprotic acids and bases as well as non-ionizable compounds. […] The physicochemical properties of the model compounds, pKa, log P [18, 19] and solubility in biorelevant media [[20-26]] were collected from the literature and are depicted in Table 2.

[4] = cited from earlier work; for Solubility FaSSIF (pH 6.5) / Solubility FeSSIF (pH 5.0): some values determined in the authors' lab (not marked)
[5] = cited from earlier work; for FE (food effect observed in clinic): assigned from AUC and Cmax ratios of published clinical data; for Observed AUC Ratio (Fed/Fasted) / Observed Cmax Ratio (Fed/Fasted): ratio of geometric means fed/fasted, published clinical data
[6] = experimental; cited from earlier work
[7] = μFLUX dissolution/flux test, FaSSIF or FeSSIF donor, acceptor sink buffer receiver; format: in vitro ADME; conditions: 0.4 mg/mL

Flux Fa (±SD; n=3) ([2]; FaSSIF donor): 0.205 ± 0.011 | Flux Fe (±SD; n=3) ([2]; FeSSIF donor): 0.218 ± 0.009
SMILES: COC1=CC(=O)C[C@@H](C)[C@]12Oc1c(Cl)c(OC)cc(OC)c1C2=O [Griseofulvin]
Solubility FaSSIF (pH 6.5) [4]: 23.4 μg/mL | Solubility FeSSIF (pH 5.0) [4]: 29.2 μg/mL | Type [1]: N | log P [6]: 2.2

Flux Fa (±SD; n=3) ([2]; FaSSIF donor): 0.020 ± 0 | Flux Fe (±SD; n=3) ([2]; FeSSIF donor): 0.020 ± 0
SMILES: NNC(=O)c1ccncc1 [Isoniazid, isoniazid]
Solubility FaSSIF (pH 6.5) [4]: > 60,000 μg/mL | Solubility in FaSSIF ([4]; FaSSIF): > 60 mg/mL | Solubility FeSSIF (pH 5.0) [4]: > 60,000 μg/mL | Solubility in FeSSIF ([4]; FeSSIF): > 60 mg/mL | FE (food effect observed in clinic) [5]: negative food effect | Observed AUC Ratio (Fed/Fasted) [5]: 0.88 | Observed Cmax Ratio (Fed/Fasted) [5]: 0.49

Flux Fa (±SD; n=3) ([2]; FaSSIF donor): 0.037 ± 0.007 | Flux Fe (±SD; n=3) ([2]; FeSSIF donor): 0.034 ± 0.002
SMILES: Cc1cn([C@H]2C[C@H](N=[N+]=[N-])[C@@H](CO)O2)c(=O)[nH]c1=O [Zidovudine, zidovudine]
pKa [1]: 9.40 ± 0.01^a | log P [6]: 0.13 | FE (food effect observed in clinic) [5]: negative food effect

Flux Fa (±SD; n=3) ([2]; FaSSIF donor): 0.521 ± 0.179 | Flux Fe (±SD; n=3) ([2]; FeSSIF donor): 1.077 ± 0.084 | Flux Ratios (Fed/Fasted) [2]: 2.07 | Food effect indicated by flux ratio [2]: negative food effect | Solubility ratio (Fed/Fasted) [3]: 1.52 | Food effect indicated by solubility ratio [3]: positive food effect | Flux Fa (±SD; n=3), suspension ([7]; FaSSIF donor, sample introduced as slurry of DS in the medium): 2.610 ± 0.618 | Flux Fe (±SD; n=3), suspension ([7]; FeSSIF donor, sample introduced as slurry of DS in the medium): 1.923 ± 0.547 | Flux Ratios (Fed/Fasted), suspension ([7]; FeSSIF/FaSSIF, sample introduced as slurry): 0.74
SMILES: CCc1nn(CCCN2CCN(c3cccc(Cl)c3)CC2)c(=O)n1CCOc1ccccc1 [Nefazodone HCl, nefazodone hydrochloride]
Solubility FaSSIF (pH 6.5) [4]: 252 μg/mL | Solubility FeSSIF (pH 5.0) [4]: 383 μg/mL | FE (food effect observed in clinic) [5]: negative food effect | Observed AUC Ratio (Fed/Fasted) [5]: 0.78 | Observed Cmax Ratio (Fed/Fasted) [5]: 0.93

More lines, now with the values behind:

SMILES: C#C[C@]1(O)CC[C@H]2[C@@H]3CCC4=Cc5oncc5C[C@]4(C)[C@H]3CC[C@@]21C [Danazol, danazol]
Type [1]: N

SMILES: COC(=O)[C@H](c1ccccc1Cl)N1CCc2sccc2C1 [Clopidogrel bisulfate, clopidogrel bisulfate]
Flux Fa (±SD; n=3) ([2]; FaSSIF donor): 1.751 ± 0.540 | Flux Fe (±SD; n=3) ([2]; FeSSIF donor): 2.168 ± 0.323 | Flux Ratios (Fed/Fasted) [2]: 1.24 | Food effect indicated by flux ratio [2]: no food effect | Solubility ratio (Fed/Fasted) [3]: 3.85 | Food effect indicated by solubility ratio [3]: positive food effect | Solubility FaSSIF (pH 6.5) [4]: 130 μg/mL | Solubility FeSSIF (pH 5.0) [4]: 500 μg/mL | FE (food effect observed in clinic) [5]: none | FE (food effect observed in clinic) ([5]; listed as clopidogrel bisulfate): no food effect | Observed AUC Ratio (Fed/Fasted) [5]: 1.02 | Observed Cmax Ratio (Fed/Fasted) [5]: 0.79

SMILES: CCCCc1oc2ccccc2c1C(=O)c1cc(I)c(OCCN(CC)CC)c(I)c1 [Amiodarone, Amiodarone hydrochloride]
Flux Fa (±SD; n=3), early ([2]; FaSSIF donor, early flux, first 2 hours excluding lag time): 0.017± 0.003 | Flux Fa (±SD; n=3), late ([2]; FaSSIF donor, late flux, 2.5-9 hours interval): 0.579 ± 0.095 | Flux Fe (±SD; n=3), early ([2]; FeSSIF donor, early flux, first 2 hours excluding lag time): 0.073 ± 0.001 | Flux Fe (±SD; n=3), late ([2]; FeSSIF donor, late flux, 2.5-9 hours interval): 1.277± 0.109 | FE (food effect observed in clinic) [5]: positive food effect

SMILES: NS(=O)(=O)c1cc(C(=O)O)c(NCc2ccco2)cc1Cl [Furosemide, furosemide]
Flux Fa (±SD; n=3) ([2]; FaSSIF donor): 0.018 ± 0.003 | Flux Fe (±SD; n=3) ([2]; FeSSIF donor): 0.208 ± 0.036 | fraction of drug deprotonated ([1]; pH 5.0, species distribution curve): ~ 97% | FE (food effect observed in clinic) [5]: negative | FE (food effect observed in clinic) ([5]; listed as furosemide): negative food effect

SMILES: Cc1ccc(-c2cc(C(F)(F)F)nn2-c2ccc(S(N)(=O)=O)cc2)cc1 [Celecoxib, celecoxib]
Flux Fa (±SD; n=3) ([2]; FaSSIF donor): 0.186 ± 0.021 | Flux Fe (±SD; n=3) ([2]; FeSSIF donor): 0.632 ± 0.077 | Flux Ratios (Fed/Fasted) [2]: 3.4 | Food effect indicated by flux ratio [2]: positive food effect | Solubility ratio (Fed/Fasted) [3]: 2.24 | Food effect indicated by solubility ratio [3]: positive food effect | Solubility FeSSIF (pH 5.0) [4]: 103.3 μg/mL | pKa [1]: 9.38 ± 0.08^a | FE (food effect observed in clinic) [5]: positive | FE (food effect observed in clinic) ([5]; listed as celecoxib): positive food effect | Observed AUC Ratio (Fed/Fasted) [5]: 1.19 | Observed Cmax Ratio (Fed/Fasted) [5]: 1.29

SMILES: CNCCC(Oc1ccc(C(F)(F)F)cc1)c1ccccc1 (centres unmarked) [Fluoxetine HCl, fluoxetine hydrochloride]
FE (food effect observed in clinic) [5]: none | FE (food effect observed in clinic) ([5]; listed as FXT): not influenced by presence or absence of food
